Assay [1] has as its target Cyclin-dependent kinase 1 (Homo sapiens, UniProt P06493).
Assay [2] concerns the target Tyrosine-protein kinase HCK (Homo sapiens, UniProt P08631).
Assay [3] deals with Ribosomal protein S6 kinase alpha-5 (Homo sapiens, UniProt O75582).
Assay [4] addresses T1, MAP/microtubule affinity-regulating kinase 4 (Homo sapiens, UniProt Q96L34).
T1 sequence (Q96L34 whole entry): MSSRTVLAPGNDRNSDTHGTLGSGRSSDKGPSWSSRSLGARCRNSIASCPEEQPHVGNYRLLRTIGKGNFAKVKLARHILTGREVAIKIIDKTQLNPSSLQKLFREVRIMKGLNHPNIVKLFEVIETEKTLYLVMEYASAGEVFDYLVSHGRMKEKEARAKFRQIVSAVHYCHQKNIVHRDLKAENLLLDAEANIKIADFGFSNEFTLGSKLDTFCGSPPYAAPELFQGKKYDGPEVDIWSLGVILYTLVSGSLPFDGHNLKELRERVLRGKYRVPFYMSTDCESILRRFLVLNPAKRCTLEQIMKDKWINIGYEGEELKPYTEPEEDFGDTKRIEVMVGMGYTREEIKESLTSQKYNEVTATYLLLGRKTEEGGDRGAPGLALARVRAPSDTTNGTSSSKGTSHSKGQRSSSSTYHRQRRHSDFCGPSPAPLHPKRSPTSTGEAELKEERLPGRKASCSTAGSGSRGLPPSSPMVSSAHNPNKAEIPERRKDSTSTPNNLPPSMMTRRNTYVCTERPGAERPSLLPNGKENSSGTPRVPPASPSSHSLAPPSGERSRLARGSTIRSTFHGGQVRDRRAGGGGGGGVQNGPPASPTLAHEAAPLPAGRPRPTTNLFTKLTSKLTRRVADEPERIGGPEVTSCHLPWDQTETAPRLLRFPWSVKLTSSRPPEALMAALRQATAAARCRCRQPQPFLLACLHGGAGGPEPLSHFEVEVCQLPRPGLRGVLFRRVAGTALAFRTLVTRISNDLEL

The next assay concerns the target Ephrin type-A receptor 7 (Homo sapiens, UniProt Q15375).
A further assay has as its target Activin receptor type-2B (Homo sapiens, UniProt Q13705).
For assay [5], the target named is T2, Mitogen-activated protein kinase 15 (Homo sapiens, UniProt Q8TD08).
T2 sequence (Q8TD08 whole entry): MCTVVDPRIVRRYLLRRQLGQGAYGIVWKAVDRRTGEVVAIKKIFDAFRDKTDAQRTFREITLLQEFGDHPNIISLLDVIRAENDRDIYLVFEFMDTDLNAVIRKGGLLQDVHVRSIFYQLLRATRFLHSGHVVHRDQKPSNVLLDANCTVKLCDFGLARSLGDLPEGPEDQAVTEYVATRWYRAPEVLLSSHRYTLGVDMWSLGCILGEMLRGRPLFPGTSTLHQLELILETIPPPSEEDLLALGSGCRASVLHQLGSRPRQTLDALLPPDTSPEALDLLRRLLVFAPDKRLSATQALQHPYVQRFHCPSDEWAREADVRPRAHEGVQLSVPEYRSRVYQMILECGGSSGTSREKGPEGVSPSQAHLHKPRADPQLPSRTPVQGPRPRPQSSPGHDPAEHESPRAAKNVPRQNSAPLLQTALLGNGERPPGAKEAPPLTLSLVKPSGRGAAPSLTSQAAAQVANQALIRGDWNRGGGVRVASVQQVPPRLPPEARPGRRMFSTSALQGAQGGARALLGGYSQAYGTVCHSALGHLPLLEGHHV

The target in assay [6] is Epithelial discoidin domain-containing receptor 1 (Homo sapiens, UniProt Q08345).
Chain of Epithelial discoidin domain-containing receptor 1 (Q08345 whole entry, the tested form may be a part): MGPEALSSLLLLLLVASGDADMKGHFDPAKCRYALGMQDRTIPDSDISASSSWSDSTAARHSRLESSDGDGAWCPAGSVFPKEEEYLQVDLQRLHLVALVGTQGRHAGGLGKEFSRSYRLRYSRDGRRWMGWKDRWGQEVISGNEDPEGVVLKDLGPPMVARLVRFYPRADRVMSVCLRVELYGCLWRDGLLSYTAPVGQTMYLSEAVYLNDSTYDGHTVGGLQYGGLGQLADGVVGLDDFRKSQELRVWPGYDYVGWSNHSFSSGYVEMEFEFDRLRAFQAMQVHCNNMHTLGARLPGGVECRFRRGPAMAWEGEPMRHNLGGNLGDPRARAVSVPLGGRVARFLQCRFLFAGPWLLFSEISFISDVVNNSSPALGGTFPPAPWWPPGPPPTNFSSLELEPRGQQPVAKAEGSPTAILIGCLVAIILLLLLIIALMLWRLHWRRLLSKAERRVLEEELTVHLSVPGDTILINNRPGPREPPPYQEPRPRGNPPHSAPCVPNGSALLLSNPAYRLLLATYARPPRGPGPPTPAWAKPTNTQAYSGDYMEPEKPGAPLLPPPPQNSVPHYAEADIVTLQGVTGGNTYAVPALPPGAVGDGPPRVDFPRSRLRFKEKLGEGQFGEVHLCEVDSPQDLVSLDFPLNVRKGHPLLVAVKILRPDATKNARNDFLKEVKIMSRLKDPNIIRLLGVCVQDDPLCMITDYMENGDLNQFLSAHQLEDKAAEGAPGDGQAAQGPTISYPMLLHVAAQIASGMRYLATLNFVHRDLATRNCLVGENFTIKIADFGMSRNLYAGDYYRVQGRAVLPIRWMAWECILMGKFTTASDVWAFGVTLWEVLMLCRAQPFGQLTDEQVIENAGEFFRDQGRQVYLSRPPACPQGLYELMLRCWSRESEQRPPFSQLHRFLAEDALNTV
Assay [7] concerns the target Tyrosine-protein kinase JAK1 (Homo sapiens, UniProt P23458).
Assay [8] deals with Serine/threonine-protein kinase pim-1 (Homo sapiens, UniProt P11309).
Chain of Serine/threonine-protein kinase pim-1 (P11309 whole entry): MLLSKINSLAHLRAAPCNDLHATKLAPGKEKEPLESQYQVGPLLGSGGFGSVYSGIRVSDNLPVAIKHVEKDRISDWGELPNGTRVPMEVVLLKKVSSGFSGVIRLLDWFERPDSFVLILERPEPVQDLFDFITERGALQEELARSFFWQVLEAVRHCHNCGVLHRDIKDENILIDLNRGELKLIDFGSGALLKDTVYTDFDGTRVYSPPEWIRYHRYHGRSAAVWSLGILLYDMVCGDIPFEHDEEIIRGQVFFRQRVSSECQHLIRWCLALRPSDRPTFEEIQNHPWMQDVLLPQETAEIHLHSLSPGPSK
The target in assay [9] is Calcium/calmodulin-dependent protein kinase kinase 2 (Homo sapiens, UniProt Q96RR4).
Chain of Calcium/calmodulin-dependent protein kinase kinase 2 (Q96RR4 whole entry): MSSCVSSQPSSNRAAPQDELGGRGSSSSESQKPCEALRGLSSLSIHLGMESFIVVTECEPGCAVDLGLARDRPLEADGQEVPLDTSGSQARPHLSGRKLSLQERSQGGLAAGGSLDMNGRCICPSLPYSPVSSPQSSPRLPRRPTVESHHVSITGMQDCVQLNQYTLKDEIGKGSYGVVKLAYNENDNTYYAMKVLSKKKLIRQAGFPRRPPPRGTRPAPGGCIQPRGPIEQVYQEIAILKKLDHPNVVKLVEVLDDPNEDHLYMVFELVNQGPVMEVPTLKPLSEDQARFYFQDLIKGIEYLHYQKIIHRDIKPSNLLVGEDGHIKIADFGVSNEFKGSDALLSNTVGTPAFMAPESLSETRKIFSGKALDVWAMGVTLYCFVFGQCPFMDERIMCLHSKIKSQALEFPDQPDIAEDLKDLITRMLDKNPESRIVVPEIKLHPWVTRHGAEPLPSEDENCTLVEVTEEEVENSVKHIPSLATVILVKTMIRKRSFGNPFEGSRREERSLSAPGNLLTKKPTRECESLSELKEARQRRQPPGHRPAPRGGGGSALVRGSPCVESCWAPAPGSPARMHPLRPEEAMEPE
Assay [10] has as its target T3, Phenylalanine--tRNA ligase beta subunit (Homo sapiens, UniProt Q9NSD9).
T3 sequence (Q9NSD9 whole entry): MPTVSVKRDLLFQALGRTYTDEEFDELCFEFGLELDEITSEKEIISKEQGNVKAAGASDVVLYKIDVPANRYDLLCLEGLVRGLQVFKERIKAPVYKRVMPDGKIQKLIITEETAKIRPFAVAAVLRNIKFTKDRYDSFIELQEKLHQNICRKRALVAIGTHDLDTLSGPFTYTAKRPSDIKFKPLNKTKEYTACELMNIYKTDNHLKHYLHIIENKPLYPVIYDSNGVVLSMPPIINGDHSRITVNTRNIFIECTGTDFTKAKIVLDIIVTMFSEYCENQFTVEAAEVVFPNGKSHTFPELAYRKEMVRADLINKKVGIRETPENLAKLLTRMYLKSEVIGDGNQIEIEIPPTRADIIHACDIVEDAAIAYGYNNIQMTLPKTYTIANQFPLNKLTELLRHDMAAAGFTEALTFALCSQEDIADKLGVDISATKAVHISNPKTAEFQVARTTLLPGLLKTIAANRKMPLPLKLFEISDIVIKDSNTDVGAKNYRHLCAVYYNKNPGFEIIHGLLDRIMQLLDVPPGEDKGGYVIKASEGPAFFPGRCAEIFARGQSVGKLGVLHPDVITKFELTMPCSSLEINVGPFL

Activity calls are given as the source filed them. For most assays here, no stated cut-off is given here; in the data, actives have a measured Kd and inactives only a lower limit.

Chain of Ephrin type-A receptor 7 (Q15375 whole entry): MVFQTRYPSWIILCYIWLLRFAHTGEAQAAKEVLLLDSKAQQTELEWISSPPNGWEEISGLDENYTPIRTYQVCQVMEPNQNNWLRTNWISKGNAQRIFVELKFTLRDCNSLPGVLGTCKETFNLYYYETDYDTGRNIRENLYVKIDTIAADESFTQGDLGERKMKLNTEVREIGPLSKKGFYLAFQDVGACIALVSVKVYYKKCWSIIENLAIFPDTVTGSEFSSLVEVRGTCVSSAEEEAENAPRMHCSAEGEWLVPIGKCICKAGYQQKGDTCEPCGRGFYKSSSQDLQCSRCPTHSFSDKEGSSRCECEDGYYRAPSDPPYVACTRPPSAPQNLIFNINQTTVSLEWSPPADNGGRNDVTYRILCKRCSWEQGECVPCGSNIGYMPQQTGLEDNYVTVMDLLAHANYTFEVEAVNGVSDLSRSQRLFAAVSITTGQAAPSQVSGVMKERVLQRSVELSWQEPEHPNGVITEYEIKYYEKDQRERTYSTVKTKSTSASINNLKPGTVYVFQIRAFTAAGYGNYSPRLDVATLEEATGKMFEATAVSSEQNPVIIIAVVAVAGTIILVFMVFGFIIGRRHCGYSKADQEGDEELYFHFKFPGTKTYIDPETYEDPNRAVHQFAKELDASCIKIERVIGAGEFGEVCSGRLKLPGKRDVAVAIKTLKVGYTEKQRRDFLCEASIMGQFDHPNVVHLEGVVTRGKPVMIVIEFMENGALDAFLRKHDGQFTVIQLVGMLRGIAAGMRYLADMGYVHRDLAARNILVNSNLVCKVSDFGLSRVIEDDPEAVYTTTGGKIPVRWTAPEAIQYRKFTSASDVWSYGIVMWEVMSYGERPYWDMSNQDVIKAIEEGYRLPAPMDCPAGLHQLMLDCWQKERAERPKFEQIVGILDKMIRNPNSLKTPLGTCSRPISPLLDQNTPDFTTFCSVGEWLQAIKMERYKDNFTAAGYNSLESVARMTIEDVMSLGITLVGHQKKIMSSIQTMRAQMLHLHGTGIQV
Chain of Ribosomal protein S6 kinase alpha-5 (O75582 whole entry): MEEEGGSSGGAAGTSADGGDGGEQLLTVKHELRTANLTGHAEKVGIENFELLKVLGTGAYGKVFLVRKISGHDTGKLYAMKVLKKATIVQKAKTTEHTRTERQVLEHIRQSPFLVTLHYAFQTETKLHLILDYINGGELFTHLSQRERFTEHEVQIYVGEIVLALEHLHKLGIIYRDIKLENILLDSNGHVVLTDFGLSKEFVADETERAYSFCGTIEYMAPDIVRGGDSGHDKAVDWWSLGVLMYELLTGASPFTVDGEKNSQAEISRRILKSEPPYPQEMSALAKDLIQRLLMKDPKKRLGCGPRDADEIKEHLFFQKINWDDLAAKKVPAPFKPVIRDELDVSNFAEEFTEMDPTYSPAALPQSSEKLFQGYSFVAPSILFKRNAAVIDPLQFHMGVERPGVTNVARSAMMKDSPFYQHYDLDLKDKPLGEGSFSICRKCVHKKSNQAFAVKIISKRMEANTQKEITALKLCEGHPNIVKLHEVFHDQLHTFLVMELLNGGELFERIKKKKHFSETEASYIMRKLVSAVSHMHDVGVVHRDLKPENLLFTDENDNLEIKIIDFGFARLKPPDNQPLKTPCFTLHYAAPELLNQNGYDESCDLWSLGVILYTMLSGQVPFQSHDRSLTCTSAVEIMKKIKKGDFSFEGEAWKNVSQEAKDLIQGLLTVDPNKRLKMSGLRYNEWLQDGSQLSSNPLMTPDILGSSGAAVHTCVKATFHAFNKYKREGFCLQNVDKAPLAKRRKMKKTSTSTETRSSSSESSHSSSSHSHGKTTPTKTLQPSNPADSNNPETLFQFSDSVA
Chain of Tyrosine-protein kinase JAK1 (P23458 whole entry): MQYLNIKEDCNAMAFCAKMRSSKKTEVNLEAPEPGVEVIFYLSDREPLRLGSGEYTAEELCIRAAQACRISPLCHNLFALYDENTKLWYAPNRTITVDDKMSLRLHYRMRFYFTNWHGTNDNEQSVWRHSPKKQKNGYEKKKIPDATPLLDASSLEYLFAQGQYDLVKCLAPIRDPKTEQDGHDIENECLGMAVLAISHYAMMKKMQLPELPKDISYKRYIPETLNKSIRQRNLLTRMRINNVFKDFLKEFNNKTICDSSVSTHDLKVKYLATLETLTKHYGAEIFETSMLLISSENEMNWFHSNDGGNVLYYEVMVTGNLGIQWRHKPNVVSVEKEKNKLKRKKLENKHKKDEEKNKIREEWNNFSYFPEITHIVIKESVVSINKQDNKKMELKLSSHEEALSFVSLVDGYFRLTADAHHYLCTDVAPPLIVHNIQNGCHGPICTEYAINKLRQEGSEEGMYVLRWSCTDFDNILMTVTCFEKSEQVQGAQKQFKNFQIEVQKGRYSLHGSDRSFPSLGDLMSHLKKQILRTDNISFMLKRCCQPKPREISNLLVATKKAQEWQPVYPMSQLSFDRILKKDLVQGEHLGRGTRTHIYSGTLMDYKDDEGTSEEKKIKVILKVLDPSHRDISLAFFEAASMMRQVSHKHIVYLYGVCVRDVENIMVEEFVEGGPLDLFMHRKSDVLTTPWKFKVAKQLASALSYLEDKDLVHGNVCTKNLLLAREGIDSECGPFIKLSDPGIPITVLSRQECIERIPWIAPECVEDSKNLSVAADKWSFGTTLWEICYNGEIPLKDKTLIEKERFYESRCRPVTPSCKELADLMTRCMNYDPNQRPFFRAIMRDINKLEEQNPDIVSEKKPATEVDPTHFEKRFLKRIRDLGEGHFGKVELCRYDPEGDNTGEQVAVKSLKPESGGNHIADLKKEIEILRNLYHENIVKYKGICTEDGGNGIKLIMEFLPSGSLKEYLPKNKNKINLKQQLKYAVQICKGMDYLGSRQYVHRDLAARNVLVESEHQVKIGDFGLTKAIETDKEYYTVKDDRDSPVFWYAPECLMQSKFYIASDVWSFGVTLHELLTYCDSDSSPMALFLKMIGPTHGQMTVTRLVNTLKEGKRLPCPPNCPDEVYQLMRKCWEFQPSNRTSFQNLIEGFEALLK
Chain of Cyclin-dependent kinase 1 (P06493 whole entry): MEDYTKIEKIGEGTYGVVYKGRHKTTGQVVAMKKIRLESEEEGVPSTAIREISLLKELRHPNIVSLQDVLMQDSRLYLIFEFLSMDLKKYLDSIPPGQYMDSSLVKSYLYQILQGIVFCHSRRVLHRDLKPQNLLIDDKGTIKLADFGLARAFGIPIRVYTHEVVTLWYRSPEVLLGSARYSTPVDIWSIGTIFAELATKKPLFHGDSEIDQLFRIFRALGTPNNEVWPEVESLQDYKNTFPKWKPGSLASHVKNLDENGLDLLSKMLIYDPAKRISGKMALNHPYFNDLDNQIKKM

The term Kd denotes the free concentration of one partner at which half of the binding sites on the other are occupied at equilibrium, for simple one-to-one binding. As for `COc1ccc(S(=O)(=O)N(C(C)=O)c2ccccc2/C=C/c2cc[n+]([O-])cc2)cc1` [HMN-214], the Kd (in [1]; in assay [2]; in assay [3]; in [4]; at Ephrin type-A receptor 7; at Activin receptor type-2B) was > 30 µM (inactive) in each case. Also, the Kd in [5], in [6], in assay [7], in assay [8], in assay [9] and in assay [10] was > 30 µM (inactive) in each case.

Regarding `CNC(=O)c1cccc2cc(Oc3ccnc4cc(OCC5(N)CC5)c(OC)cc34)ccc12` [LUCITANIB], the Kd (in assay [1]; in assay [2]; in assay [3]; in [4]; at Ephrin type-A receptor 7; at Activin receptor type-2B) was > 30 µM (inactive) each time. For the same compound, the Kd is > 30 µM (inactive) in [5]; 0.014 µM (active) in assay [6]; > 30 µM (inactive) in assay [7]; > 30 µM (inactive) in assay [8]; > 30 µM (inactive) in assay [9]; > 30 µM (inactive) in assay [10].

On to `NC1(c2ccc(-c3nc4ccn5c(=O)[nH]nc5c4cc3-c3ccccc3)cc2)CCC1` [MK-2206], for which the Kd (in assay [1]; in [2]; in assay [3]; in assay [4]; on Ephrin type-A receptor 7; at Activin receptor type-2B) was > 30 µM (inactive) each time. For the same compound, the Kd in [5], in [6], in [7], in assay [8], in [9] and in [10] was > 30 µM (inactive) each time.

`Cn1cc(-c2cnc3ccc4ccc(CS(=O)(=O)NCc5ccccn5)cc4c(=O)c3c2)cn1` [MK-8033]: the Kd (in assay [1]; in [2]; in assay [3]; in [4]; on Ephrin type-A receptor 7; at Activin receptor type-2B) was > 30 µM (inactive) each time. For the same compound, the Kd in [5], in assay [6], in assay [7], in assay [8], in assay [9] and in assay [10] was > 30 µM (inactive) throughout.

For the compound `FC(F)(F)c1ccc(/C=C/c2nc(COc3ccc(CCCCn4ccnn4)cc3)co2)cc1` [MUBRITINIB], the Kd (in assay [1]; in assay [2]; in [3]; in assay [4]; on Ephrin type-A receptor 7; at Activin receptor type-2B) was > 30 µM (inactive) in each case. Further, the Kd in [5], in assay [6], in assay [7], in assay [8], in assay [9] and in assay [10] was > 30 µM (inactive) throughout.

In the case of `CCOc1cc2ncc(C#N)c(Nc3ccc(F)c(Cl)c3)c2cc1NC(=O)/C=C/CN(C)C` [PELITINIB], the Kd was > 30 µM (inactive) in assay [1]; 1.18 µM (active) in assay [2]; > 30 µM (inactive) in assay [3]; > 30 µM (inactive) in assay [4]; > 30 µM (inactive) at Ephrin type-A receptor 7; > 30 µM (inactive) on Activin receptor type-2B. Further, the Kd in assay [5] is > 30 µM (inactive); in [6], > 30 µM (inactive); in assay [7], > 30 µM (inactive); in assay [8] it was > 30 µM (inactive); in assay [9], 1.39 µM (active); in [10], > 30 µM (inactive).

`Cc1nc(Nc2n[nH]c3c2CN(C(=O)N[C@H](CN(C)C)c2ccccc2)C3(C)C)c2sccc2n1` [PF-03758309]: the Kd in assay [1] is > 30 µM (inactive); in [2], > 30 µM (inactive); in assay [3], 30 µM (active); in [4] it was 0.029 µM (active); at Ephrin type-A receptor 7 it was > 30 µM (inactive); on Activin receptor type-2B it was > 30 µM (inactive). Besides, the Kd was > 30 µM (inactive) in assay [5]; > 30 µM (inactive) in [6]; > 30 µM (inactive) in assay [7]; > 30 µM (inactive) in assay [8]; 2.86 µM (active) in assay [9]; > 30 µM (inactive) in assay [10].

On to `Cc1cnc(NC(=O)Nc2cc(Br)c(C)cc2OC[C@@H]2CNCCO2)cn1` [RABUSERTIB], for which the Kd (in assay [1]; in [2]; in assay [3]; in assay [4]; on Ephrin type-A receptor 7; on Activin receptor type-2B) was > 30 µM (inactive) each time. The Kd in assay [5], in [6], in [7], in assay [8], in assay [9] and in assay [10] was > 30 µM (inactive) in each case.

Regarding `N#CC1(c2ccc(NC(=O)c3cccnc3NCc3ccncc3)cc2)CCCC1` [RIVOCERANIB], the Kd (in [1]; in [2]; in [3]; in assay [4]; at Ephrin type-A receptor 7; on Activin receptor type-2B) was > 30 µM (inactive) throughout. Moreover, the Kd in assay [5], in assay [6], in assay [7], in [8], in assay [9] and in assay [10] was > 30 µM (inactive) each time.

In the case of `O=c1[nH]ccc2cc(OC3CCNCC3)ccc12` [SAR-407899 FREE BASE], the Kd (in assay [1]; in assay [2]; in assay [3]; in assay [4]; at Ephrin type-A receptor 7; at Activin receptor type-2B) was > 30 µM (inactive) in each case. Also, the Kd in [5], in [6], in [7], in [8], in [9] and in [10] was > 30 µM (inactive) throughout.
